# Test results from patent EP0904070B1, “THE USE OF BUCKMINSTERFULLERENE FOR TREATMENT OF NEUROTOXIC INJURY” (F. HOFFMANN-LA ROCHE AG, priority 1996, dated 1997).
# Tests used:
# [1] = tested on: Cortical neurons in glia-deficient culture; test: Serum deprivation apoptotic neuronal death in glia-deficient cultures (trypan blue cell counting); type: cell-based, Mouse; conditions: 10 (M, 48 hours after onset of serum-deprivation); 10 µM
# Experimental: Mouse neocortical cultures were prepared as neuron-astrocyte co-cultures (approximately 50% astrocytes) (Rose et al., 1992) or as neuronal cultures (< 2% astrocytes). Mouse embryos (gestational day 15) are removed from pregnant anesthetized Swiss-Webster mice, and the neocortex is dissected away from other brain structures. After brief incubation in trypsin, the cells are dissociated by trituration, and the cell suspension is then diluted into plating medium and plated onto previously-prepared 24-well Plastek culture plates coated with poly-D-lysine/laminin (for neuronal cultures) or onto an existing bed of astrocytes (for co-cultures). After 1-2 days in vitro, a partial exchange with glial conditioned medium is made for "pure" neuronal cultures, and cytosine arabinoside (3µM) is added immediately after feeding to inhibit glial proliferation. Mixed cultures are fed biweekly with growth medium until 11-12 days in vitro, when they are fed with serum-free MS containing 2 mM L-glutamine. Unless otherwise stated, cells were used at 14-16 days in vitro. […]
# Additionally, neuronal cell death was determined at 48 hours removal of serum by counting cells that are no longer able to exclude trypan blue.
# NMDA receptors = test: 45Ca2+ tracer experiments, NMDA-stimulated calcium accumulation in cultured neurons; type: cell-based, Mouse; conditions: co-application of up to 300 (M with NMDA (300 (M), 10 minutes))
# Experimental: To verify that protection against NMDA-induced neuronal cell injury was not due to a reduction in NMDA-induced calcium influx, ^45Ca^2+ tracer studies were performed. Cultures were washed twice with HBBSS and then exposed to NMDA (300 (M), either alone or with C60(C(COOH)2)3, in HBBSS containing tracer ^45Ca^2+ (0.5 (Ci/culture well; NEN, Boston, MA). The exposure was terminated after 10 minutes by exchanging the medium four times with unlabelled HBBSS, followed by lysis of the cells by addition of 0.2% sodium dodecyl sulfate (SDS). The cells were left in SDS for 2 hours, and the lysate was then transferred to scintillation vials. An additional wash of each culture well with SDS was added to the vial, which then underwent (-counting.
# cortical neurons [2] = test: AMPA excitotoxic neuronal injury in neuron-astrocyte co-cultures (LDH efflux); type: cell-based, Mouse
# Experimental: Mouse embryos (gestational day 15) are removed from pregnant anesthetized Swiss-Webster mice, and the neocortex is dissected away from other brain structures. After brief incubation in trypsin, the cells are dissociated by trituration, and the cell suspension is then diluted into plating medium and plated onto previously-prepared 24-well Plastek culture plates coated with poly-D-lysine/laminin (for neuronal cultures) or onto an existing bed of astrocytes (for co-cultures). After 1-2 days in vitro, a partial exchange with glial conditioned medium is made for "pure" neuronal cultures, and cytosine arabinoside (3µM) is added immediately after feeding to inhibit glial proliferation. Mixed cultures are fed biweekly with growth medium until 11-12 days in vitro, when they are fed with serum-free MS containing 2 mM L-glutamine. Unless otherwise stated, cells were used at 14-16 days in vitro.
# cortical neurons [3] = test: NMDA excitotoxic neuronal injury in neuron-astrocyte co-cultures (LDH efflux); type: cell-based, Mouse; conditions: for reduction of neuronal death from NMDA: 300(M, co-applied with NMDA for 10 minutes, assessed at 24 hours), all experiments performed to date
# Experimental: Mouse neocortical cultures were prepared as neuron-astrocyte co-cultures (approximately 50% astrocytes) (Rose et al., 1992) or as neuronal cultures (< 2% astrocytes). Mouse embryos (gestational day 15) are removed from pregnant anesthetized Swiss-Webster mice, and the neocortex is dissected away from other brain structures. After brief incubation in trypsin, the cells are dissociated by trituration, and the cell suspension is then diluted into plating medium and plated onto previously-prepared 24-well Plastek culture plates coated with poly-D-lysine/laminin (for neuronal cultures) or onto an existing bed of astrocytes (for co-cultures). After 1-2 days in vitro, a partial exchange with glial conditioned medium is made for "pure" neuronal cultures, and cytosine arabinoside (3µM) is added immediately after feeding to inhibit glial proliferation. Mixed cultures are fed biweekly with growth medium until 11-12 days in vitro, when they are fed with serum-free MS containing 2 mM L-glutamine. Unless otherwise stated, cells were used at 14-16 days in vitro.
# Carboxyfullerene (3-300 (M) was co-applied to neuron-astrocyte co-cultures described above with NMDA for assessment of neuroprotection. Brief exposure to NMDA in the presence of the carboxyfullerene was carried out by triple exchange of the medium with HBBSS, followed by addition of 50µM- 500µM NMDA plus carboxyfullerene for 10 minutes. The NMDA and carboxyfullerene were removed by quadruple exchange of the medium with MS, and the cultures were placed in the humidified, CO2 (5%), 37°C incubator for 24 hours, when the extent of injury was assessed.
# Neuronal death was assessed at 24 hours after NMDA or AMPA administration by phase contrast microscopy at 200-400x, and by measurement of lactate dehydrogenase (LDH) efflux from dying cells into the bathing medium (Koh and Choi, 1987). Quantitation of cell death was confirmed in some experiments by trypan blue or propidium iodide staining and cell counting.
# wild-type animals = test: Tolerability in wild-type animals treated two months; type: in vivo, mice; conditions: 15 mg/kg/day
# [4] = tested on: FALS mice (Gurney GI strain); test: Survival in a transgenic model of amyotrophic lateral sclerosis; type: in vivo; conditions: 15 mg/kg/day, intraperitoneal mini-osmotic pumps from 10 weeks of age
# Experimental: The G1 line, with 18 copies and 4 times the SOD activity of wildtype animals, develops motor neuron death by 3-4 months of age, with hindlimb weakness, impaired grooming, and thinning along their flanks. Affected mice were dead before 5 months of age (Gurney et al., 1994).
# C60(C(COOH)2)3 was used to treat FALS mice (Gurney GI strain) to determine its ability to treat FALS. At 10 weeks of age, Alzet mino-osmotic pumps (28 day, 6 (l/day, 15 mg/kg/day) containing C60(C(COOH)2)3 (the mixed isomers, which consist of >90% O-3a) or saline were implanted intraperitoneally. The pumps were replaced at 14 weeks of age. Videotaped assessments of open field walking were performed and scored using the Bresnahan scale for spinal cord injury (Basso et al., 1995). As reported by Gurney and colleagues, these animals develop motor symptoms by approximately 90 days of age, and are moribund between 125 and 145 days of age.
# The 8 day increase in survival reached statistical significance (p=0.041), by t-test. There was no difference in survival for FALS mice who received no pumps (123 days, n=4) or those treated with saline-filled pumps (125 days, n=6).
# [5] = Solubility in water / aqueous solution; type: physicochemical
# Source text: Solutions of carboxyfullerene were translucent brown.
# hepatocytes = test: Protection from injury in hepatocytes; type: cell-based; conditions: compared with R-3b
# [6] = tested on: endothelial cell cultures; test: Protection from injury in endothelial cell cultures; type: cell-based; conditions: compared with R-3b
# [7] = Spin-trap (DMPO) electron paramagnetic resonance spectroscopy, hydroxyl radical scavenging; conditions: for scavenging of •OH by EPR: •OH from 100 µM H2O2 in Fe2+ (Fenton reaction), 100 mM DMPO, 4 µM compound
# Experimental: Hydroxyl radical (spectra on left): ^•OH in the presence of DMPO alone (top), in the presence of 4 µM O-3a (middle), or in the presence of 4 µM R-3b (bottom). Superoxide radical (right): O2^•- in DMPO alone (top), in the presence of 400 µM O-3a (middle), in the presence of 400 µM R-3b (bottom). The arrow designates a spurious signal due to an unknown radical in the cavity. The sample was analyzed in a quartz flat cell (60 x 10 x 0.25 mm) in a Bruker 200, X-band EPR spectrometer. Settings were power = 1.6 mW, modulation = 1 G, field modulation = 100 Hz, R.G. = 3.2x10^5.
# [8] = Spin-trap (DMPO) electron paramagnetic resonance spectroscopy, superoxide radical scavenging (xanthine + xanthine oxidase); conditions: compound co-incubated with xanthine oxidase and xanthine
# [9] = Spin-label/EPR membrane experiments (5- or 16-doxyl ketostearic acid in brain lipids); type: physicochemical, mouse; conditions: for Lipid/aqueous partition factor: f = hL/hA, measured for 16-doxylstearic acid
# Experimental: Values are mean ± SEM, n=8-12 per conditions. * = p<0.05 vs. untreated injury condition, using ANOVA followed by Student-Newman-Keuls test for multiple comparisons. ** = p<0.05 R-3b different than O-3a. […] The spin labels were added to lipids extracted from adult mouse brain at a ratio of 1:100. EPR settings were the same as those listed in the legend for Figure 9. Both isomers produce a shift in the order parameter (S) of the 5-doxyl group, but O-3a produced a greater change in S (Table 1).
substance,measurement,setting,value
C60(C(COOH)2)3,reduction in neuronal death (serum deprivation),[1],50%
same,45Ca2+ accumulation,NMDA receptors,not affected
same,reduction of neuronal cell death from AMPA,"cortical neurons [2]; 100 (M, 24 hours exposure, MK-801 (10 (M) included, data from 4 experiments pooled)), 100 µM",> 80%
same,reduction of neuronal death from NMDA,cortical neurons [3],nearly complete protection
same,reduction of neuronal death from NMDA,cortical neurons [3]; 300 µM,at least 60%
same,reduction in neuronal cell death (NMDA),cortical neurons [3]; pooled data from three experiments (Fig. 5),75%
same,adverse health or behavioral effects,wild-type animals; n=6,no adverse health or behavioral effects
same,weights versus untreated littermates,wild-type animals; within genders,similar
same,onset of symptoms,[4],delay in onset of symptoms
same,delay in death,"[4]; versus saline, p = 0.041, mixed isomers, >90% O-3a",8 ± 2.2 days
same,soluble in water,[5],at least 50 mM
C60(C(COOH)2)3 [Compound O-3a],protection from injury in hepatocytes,hepatocytes,enhanced protection over R-3b
same,protection from injury in endothelial cell cultures,[6],enhanced protection over R-3b
same,hydroxyl radical (spin adduct DMPO-OH) EPR signal,"[7]; 150 (M compound included with H2O2, 15 minute period)",elimination of this OH signal
same,scavenging of •OH by EPR,[7],extremely potent scavengers
same,superoxide radical (spin adduct DMPO-OOH) EPR signal,[8],eliminated the superoxide radical signal
same,"protection against AMPA-induced neuronal death, compared with R-3b","cortical neurons [2]; Fig. 10 B, n=8-12 per condition",substantially better protection
same,"protection from injury produced by application of NMDA, compared with R-3b","cortical neurons [3]; Fig. 10 A, n=8-12 per condition",slightly better protection
same,Lipid/aqueous partition factor,[9],1.0 ± 0.2
same,entry into the lipid bilayer,[9]; inferred from order parameter and 16-doxyl signal,to a greater extent than R-3b
C60(C(COOH)2)3 [Compound R-3b],scavenging of •OH by EPR,[7],extremely potent scavengers
same,superoxide radical (spin adduct DMPO-OOH) EPR signal,[8],eliminated the superoxide radical signal
same,neuroprotective activity (in words),"cortical neurons [3]; excitotoxic injury by NMDA and AMPA, insult not stated separately",effective neuroprotectant
same,Lipid/aqueous partition factor,[9],0.6
